Measurements published in patent publication US11866429B2, “Heteroaryl-biphenyl amines for the treatment of PD-L1 diseases” (CHEMOCENTRYX, INC., priority 2019, dated 2024).

The molecules below were run against human PD-L1 (Homo sapiens (Human), UniProt Q9NZQ7) (assay: Enzyme-Linked Immunosorbent Assay (ELISA), PD-1/PD-L1 binding). Details: plates coated with human PD-L1; Human PD-1 and biotin added; absorbance at 450 nm.
Procedure: 96 Well plates were coated with 1 μg/mL of human PD-L1 (obtained from R&D) in PBS overnight at 4° C. The wells were then blocked with 2% BSA in PBS (W/V) with 0.05% TWEEN-20 for 1 hour at 37° C. The plates were washed 3 times with PBS/0.05% TWEEN-20 and the compounds were serial diluted (1:5) in dilution medium and added to the ELISA plates. Human PD-1 and biotin 0.3 μg/mL (ACRO Biosystems) were added and incubated for 1 hour at 37° C. then washed 3 times with PBS/0.05% TWEEN-20. A second block was performed with 2% BSA in PBS (W/V)/0.05% TWEEN-20 for 10 min at 37° C. and the plates were washed 3 times with PBS/0.05% TWEEN-20. Streptavidin-HRP was added for 1 hour at 37° C. then the plates were washed 3 times with PBS/0.05% TWEEN-20. TMB substrate was added and reacted for 20 min at 37° C. A stop solution (2 N aqueous […]) was added. The absorbance was read at 450 nm using a micro-plate spectrophotometer.

human PD-L1, sequence (Q9NZQ7 19-239): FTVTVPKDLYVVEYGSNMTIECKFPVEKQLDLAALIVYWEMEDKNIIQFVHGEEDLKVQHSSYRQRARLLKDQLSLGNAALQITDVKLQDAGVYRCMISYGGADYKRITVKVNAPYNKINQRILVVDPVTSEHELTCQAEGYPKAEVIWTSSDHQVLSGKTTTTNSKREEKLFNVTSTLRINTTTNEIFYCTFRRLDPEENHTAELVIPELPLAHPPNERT

IC50, < 10 nM:
COc1nc(-c2cccc(-c3cccc(Nc4nccc5nccnc45)c3Cl)c2Cl)cnc1CN[C@@H]1CCOC[C@@H]1O [Compound 1.001]
COc1nc(-c2cccc(-c3cccc(Nc4nccc5nccnc45)c3Cl)c2Cl)cnc1CN1CC(C(=O)O)C1 [Compound 1.002]
COc1nc(-c2cccc(-c3cccc(Nc4nccc5nccnc45)c3Cl)c2Cl)cnc1CN1CC(C)(C(=O)O)C1 [Compound 1.003]
COc1nc(-c2cccc(-c3cccc(Nc4nccc5nccnc45)c3Cl)c2Cl)cnc1CNC[C@@H]1CCC(=O)N1 [Compound 1.004]
COc1nc(-c2cccc(-c3cccc(Nc4nc(C)nc5cccnc45)c3C)c2Cl)cnc1CNCC1(O)CC1 [Compound 1.005]
COc1nc(-c2cccc(-c3cccc(Nc4nc(C)nc5cccnc45)c3C)c2Cl)cnc1CNCCCO [Compound 1.006]
COc1nc(-c2cccc(-c3cccc(Nc4nc(C)nc5cccnc45)c3C)c2Cl)ccc1CN1CC(C)(O)C1 [Compound 1.007]
COc1nc(-c2cccc(-c3cccc(Nc4nc(C)nc5cccnc45)c3C)c2Cl)ccc1CN1CC2(CNC(=O)N2)C1 [Compound 1.008]
COc1nc(-c2cccc(-c3cccc(Nc4nc(C)nc5cccnc45)c3Cl)c2F)ccc1CN[C@@H]1CCOC[C@@H]1O [Compound 1.009]
COc1nc(-c2cccc(-c3cccc(Nc4nc(C)nc5cccnc45)c3C)c2C#N)ccc1CN[C@@H]1CCOC[C@@H]1O [Compound 1.010]
COc1nc(-c2cccc(-c3cccc(Nc4nc(C)nc5cccnc45)c3Cl)c2F)ccc1CNC[C@@H]1CCC(=O)N1 [Compound 1.011]
COc1nc(-c2cccc(-c3cccc(Nc4nc(C)nc5cccnc45)c3C)c2F)ccc1CN[C@@H]1CCOC[C@@H]1O [Compound 1.012]
COc1nc(-c2cccc(-c3cccc(Nc4nc(C)nc5cccnc45)c3C)c2F)ccc1CNC[C@@H]1CCC(=O)N1 [Compound 1.013]
CCOc1nc(-c2cccc(-c3cccc(Nc4nc(C)nc5cccnc45)c3C)c2Cl)ccc1CNC[C@@H]1CCC(=O)N1 [Compound 1.014]
COc1nc(-c2cccc(-c3cccc(Nc4nc(C)nc5cccnc45)c3C)c2Cl)ccc1CNCC(C)(C)C(N)=O [Compound 1.015]
COc1nc(-c2cccc(-c3cccc(Nc4nc(C)nc5cccnc45)c3C)c2Cl)ccc1CNC[C@H](O)CC(=O)O [Compound 1.016]
COc1nc(-c2cccc(-c3cccc(Nc4nc(C)nc5cccnc45)c3C)c2Cl)ccc1CNC1CNC1 [Compound 1.017]
COc1nc(-c2cccc(-c3cccc(Nc4nc(C)nc5cccnc45)c3C)c2Cl)ccc1CN[C@H]1CC[C@@H]1O [Compound 1.018]
COc1nc(-c2cccc(-c3cccc(Nc4nc(C)nc5cccnc45)c3C)c2Cl)ccc1CNC1CCNCC1 [Compound 1.019]
Cc1nc(Nc2cccc(-c3cccc(-c4ccc(CNC[C@@H]5CCC(=O)N5)c(C(F)(F)F)n4)c3Cl)c2C)c2ncccc2n1 [Compound 1.020]
COc1nc(-c2cccc(-c3cccc(Nc4nc(C)nc5cccnc45)c3C)c2Cl)ccc1CN(C)CCO [Compound 1.021]
COc1nc(-c2cccc(-c3cccc(Nc4nc(C)nc5cccnc45)c3C)c2Cl)ccc1CN1CCC[C@@H](C(=O)O)C1 [Compound 1.022]
COc1nc(-c2cccc(-c3cccc(Nc4nc(C)nc5cccnc45)c3C)c2Cl)ccc1CN[C@H]1CCC(=O)NC1 [Compound 1.023]
COc1nc(-c2cccc(-c3cccc(Nc4nc(C)nc5cccnc45)c3C)c2Cl)ccc1CN[C@H]1CNC(=O)C1 [Compound 1.024]
COc1nc(-c2cccc(-c3cccc(Nc4nc(C)nc5cccnc45)c3C)c2Cl)ccc1CNCc1ncc[nH]1 [Compound 1.025]
COc1nc(-c2cccc(-c3cccc(Nc4nc(C)nc5cccnc45)c3C)c2Cl)ccc1CNC[C@H]1CCC(=O)N1 [Compound 1.026]
